{"source": "patent US20040018238A1", "about": "“Biodegradable vehicles and delivery systems of biolgically active substances” (priority 2003, published 2004)", "key": {"[1]": {"assay": "In vitro release of oxytetracycline from drug-loaded formulations at 37° C. in isotonic phosphate buffer containing sodium sulfite", "type": "physicochemical", "conditions": "for drug release / drug release (rank among plasticizers): drug 20% w/w", "experimental": "A polymer (25% w/w of 50/50 lactide-co-glycolide copolymer, inherent viscosity of 0.59) was dissolved in a minimum quantity of acetone. Pure polyethylene glycol 400 (PEG 400) was added to the polymer solution. The solution was stirred to yield a uniform mixture. Acetone was evaporated from the mixture by heating at 60-75° C. with constant stirring. The blank formulation was kept in a vacuum oven at 60-75° C. overnight to ensure complete removal of acetone. […] Three different concentrations of oxytetracycline base (either 10, 20 or 30% w/w) were added to the blank formulation and mixed thoroughly to ensure uniform distribution of the drug in the formulations. Drug release from the drug-loaded formulations was performed at 37° C. in isotonic phosphate buffer containing sodium sulfite as an antioxidant. […] This increase occurred because, at higher drug-loadings, more drug is available on the surface of the formulations for release. Moreover, a higher drug concentration gradient between the formulation and the dissolution medium is expected at 30% w/w drug-loading compared to the one at 10% w/w drug loading.\n(§1) A polymer (25% w/w of 50/50 lactide-co-glycolide copolymer, inherent viscosity of 0.59) was dissolved in a minimum quantity of acetone. […] The resulting solutions were stirred to yield uniform mixtures. Acetone was evaporated from the mixtures by heating at 60-75° C. with constant stirring. The blank formulations were kept in a vacuum oven at 60-75° C. overnight to ensure complete removal of acetone. […] Oxytetracycline base (20% w/w) was added to each blank formulation and mixed thoroughly to ensure uniform distribution of the drug in the formulations. Drug release from the drug-loaded formulations was performed at 37° C. in isotonic phosphate buffer containing sodium sulfite as an antioxidant.\nThree different concentrations (10, 20 or 25% w/w) of a polymer (50/50 lactide-co-glycolide copolymer, inherent viscosity of 0.59) were dissolved in a minimum quantity of acetone. Pure PEG 400 (90, 80 or 75% w/w) was added to the polymer solutions. The solutions were stirred to yield uniform mixtures. Acetone was evaporated from the mixtures by heating at 60-75° C. with constant stirring. The blank formulations were kept in a vacuum oven at 60-75° C. overnight to ensure complete removal of acetone. The resulting formulations obtained were matrices with varying viscosities or consistency. The formulation with 25% polymer was considerably more viscous than the one with 10% polymer. Oxytetracycline base (20% w/w) was added to each blank formulation and mixed thoroughly to ensure uniform distribution of the drug in the formulations. Drug release from the drug-loaded formulations was performed at 37° C. in isotonic phosphate buffer containing sodium sulfite as an antioxidant.\nas §1, with “overmight” for “overnight”\nThe resulting solutions were stirred to yield uniform mixtures. Acetone was evaporated from the mixtures by heating at 60-75° C. with constant stirring. The blank formulations were kept in a vacuum oven at 60-75° C. overnight to ensure complete removal of acetone. […] Oxytetracycline base (20% w/w) was added to each blank formulation and mixed thoroughly to ensure uniform distribution of the drug in the formulations. […]"}, "[2]": {"assay": "In vivo release of oxytetracycline from biodegradable delivery systems in quail", "conditions": "delivery systems with varying polymer molecular weights (FIG. 16)", "source_text": "FIG. 16 describes the effect of varying polymer molecular weights on in vivo release of oxytetracycline base from biodegradable delivery systems."}, "[3]": {"assay": "In vitro release of naltrexone from drug-loaded formulations at 37° C. in isotonic phosphate buffer", "type": "physicochemical", "conditions": "compared with hydrated naltrexone base; 25% 50/50 PLGA (i.v. 0.64) with pure PEG 400 or 50/50% PEG 400/TEC; drug 20% w/w", "experimental": "The solutions were stirred to yield a uniform mixture. Acetone was evaporated from the mixtures by heating at 60-75° C. with constant stirring. The blank formulations were kept in a vacuum oven at 60-75° C. overnight to ensure complete removal of acetone. […] Either hydrated naltrexone base (20% w/w) or naltrexone hydrochloride (20% w/w) was added to the blank formulations and mixed thoroughly to ensure uniform distribution of the drugs in the formulations. Drug release from the drug-loaded formulations was performed at 37° C. in isotonic phosphate buffer. […] This is because the solubility of the naltrexone hydrochloride in the dissolution buffer is much greater than that of the hydrated naltrexone base."}, "[4]": {"assay": "Solubility in water / dissolution buffer", "type": "physicochemical"}}, "note": "Where a name gives a salt, the structure may show the parent alone.", "data": [{"smiles": "CN(C)[C@@H]1C(=O)C(C(N)=O)=C(O)[C@@]2(O)C(=O)C3=C(O)c4c(O)cccc4[C@@](C)(O)[C@H]3[C@H](O)[C@@H]12", "note": "[oxytetracycline base]", "values": [{"measurement": "drug release", "setting": "[1]; blend of 75% PEG 400 and 25% TEC compared with 50/50% PEG 400/TEC at similar polymer to plasticizer ratio", "result": "considerably faster"}, {"measurement": "drug release", "setting": "[1]; effect of decreasing polymer from 25% to 10% (PEG 400 75% to 90%), 50/50 PLGA i.v. 0.59", "result": "dramatically increased the drug release"}, {"measurement": "drug release", "setting": "[1]; effect of decreasing polymer inherent viscosity from 0.76 to 0.15, 50/50 PLGA, PEG 400", "result": "dramatically increased the drug release"}, {"measurement": "drug release", "setting": "[1]; effect of going from 0% PEG 400/100% TEC to 100% PEG 400/0% TEC, 25% w/w 50/50 PLGA (i.v. 0.59)", "result": "faster drug release"}, {"measurement": "cumulative amount of drug released at the end of 360 hours", "setting": "[1]; effect of increasing drug loading from 10 to 30% w/w, 25% w/w 50/50 PLGA (i.v. 0.59), PEG 400", "result": "increased the cumulative amount of drug released"}, {"measurement": "drug release (rank among plasticizers)", "setting": "[1]; formulations prepared with ATEC, 25% w/w 50/50 PLGA (i.v. 0.59)", "result": "slowest"}, {"measurement": "drug release (rank among plasticizers)", "setting": "[1]; formulations prepared with PEG 400, 25% w/w 50/50 PLGA (i.v. 0.59)", "result": "fastest"}, {"measurement": "drug release (rank among plasticizers)", "setting": "[1]; formulations prepared with TEC, 25% w/w 50/50 PLGA (i.v. 0.59)", "result": "Intermediate drug release"}, {"measurement": "drug release", "setting": "[1]; polymer to plasticizer ratio 1:5 (16.67% polymer) compared with 1:3 (25% polymer), PEG 400/TEC blends", "result": "faster drug release"}, {"measurement": "in vivo release", "setting": "[2]", "result": "desired controlled release of the OTC was achieved"}]}, {"smiles": "O=C1CC[C@@]2(O)[C@H]3Cc4ccc(O)c5c4[C@@]2(CCN3CC2CC2)[C@H]1O5", "note": "[naltrexone hydrochloride]", "values": [{"measurement": "drug release", "setting": "[3]", "result": "considerably faster"}, {"measurement": "solubility in the dissolution buffer", "setting": "[4]; compared with hydrated naltrexone base, isotonic phosphate buffer", "result": "much greater"}]}, {"smiles": "CN(C)[C@@H]1C(O)=C(C(N)=O)C(=O)[C@@]2(O)C(O)=C3C(=O)c4c(O)cccc4[C@@](C)(O)[C@H]3[C@H](O)[C@@H]12", "note": "[oxytetracycline hydrochloride]", "values": [{"measurement": "aqueous solubility", "setting": "[4]; hydrochloride salt compared with the base", "result": "greater aqueous solubility"}]}]}
